Peptide text beside a SMILES is read from it.
What was measured:
[1] = target: T1, CRF2R (Homo sapiens, UniProt Q13324); experiment: CRF2R agonist activation (EC50 / Emax), called comparative CRF binding; format: cell-based; conditions: for Emax: read-out: CRF2R Emax
T1 sequence (Q13324 1-411): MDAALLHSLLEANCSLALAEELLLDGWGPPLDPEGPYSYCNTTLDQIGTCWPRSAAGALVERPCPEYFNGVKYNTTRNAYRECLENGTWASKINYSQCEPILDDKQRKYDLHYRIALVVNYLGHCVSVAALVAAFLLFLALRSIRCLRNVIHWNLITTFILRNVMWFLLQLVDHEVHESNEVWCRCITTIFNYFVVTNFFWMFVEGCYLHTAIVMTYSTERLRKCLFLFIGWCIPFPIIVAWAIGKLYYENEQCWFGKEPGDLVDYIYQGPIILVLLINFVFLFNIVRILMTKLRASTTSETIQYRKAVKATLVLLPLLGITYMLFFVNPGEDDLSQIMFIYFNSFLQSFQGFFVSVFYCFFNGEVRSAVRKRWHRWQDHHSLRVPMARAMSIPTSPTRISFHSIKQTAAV
How it was run: (§1)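 Agonism at each human CRF receptor subtype is inferred from increased cAMP relative to vehicle, using cells expressing that subtype and either lysate cAMP measurement or a cAMP response element reporter.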

[2] = target: T2, CRF1R (Homo sapiens, UniProt P34998); experiment: CRF1R agonist activation (EC50 / Emax), called comparative CRF binding; format: cell-based; conditions: for Emax: read-out: CRF1R Emax
T2 sequence (P34998 24-415): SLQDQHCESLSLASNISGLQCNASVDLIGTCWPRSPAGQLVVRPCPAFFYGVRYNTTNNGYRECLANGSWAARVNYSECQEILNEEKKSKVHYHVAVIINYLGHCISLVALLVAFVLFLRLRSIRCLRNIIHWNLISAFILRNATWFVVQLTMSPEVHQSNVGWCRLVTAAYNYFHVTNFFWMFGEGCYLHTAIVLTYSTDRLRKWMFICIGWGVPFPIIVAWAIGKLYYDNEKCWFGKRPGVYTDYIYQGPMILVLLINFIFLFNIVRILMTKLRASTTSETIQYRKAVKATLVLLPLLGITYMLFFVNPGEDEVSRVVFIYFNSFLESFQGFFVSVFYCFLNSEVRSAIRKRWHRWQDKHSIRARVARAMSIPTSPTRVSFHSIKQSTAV
How it was run: as §1

Compound `CC[C@H](C)[C@H](NC(=O)[C@H](CCCNC(=N)N)NC(=O)[C@H](C)NC(=O)[C@H](CC(N)=O)NC(=O)[C@H](CCC(N)=O)NC(=O)[C@H](CCC(=O)O)NC(=O)[C@H](C)NC(=O)[C@H](CCCNC(=N)N)NC(=O)[C@H](CCC(=O)O)NC(=O)[C@H](CCCNC(=N)N)NC(=O)[C@H](CCC(N)=O)NC(=O)[C@H](CO)NC(=O)[C@H](CCC(N)=O)NC(=O)[C@@H](NC(=O)[C@H](CCCNC(=N)N)NC(=O)[C@H](C)NC(=O)[C@H](CC(C)C)NC(=O)[C@H](CCC(=O)O)NC(=O)[C@H](CC(C)C)NC(=O)[C@H](CC(C)C)NC(=O)[C@@H](NC(=O)[C@H](CCCNC(=N)N)NC(=O)[C@H](CC(C)C)NC(=O)[C@H](CC(C)C)NC(=O)[C@H](CC(C)C)NC(=O)[C@H](CC(C)C)NC(=O)[C@@H]1CCCN1C(=O)[C@H](CC(C)C)NC(=O)[C@H](CC(=O)O)NC(=O)[C@@H](NC(=O)[C@H](CO)NC(=O)[C@H](CC(C)C)NC(=O)[C@H](CO)NC(=O)[C@@H]1CCCN1C(=O)[C@H](CC(N)=O)NC(=O)[C@@H](N)CC(=O)O)[C@@H](C)CC)[C@@H](C)O)[C@@H](C)O)C(=O)N[C@@H](Cc1ccccc1)C(=O)N[C@@H](C)C(=O)N[C@@H](CCCNC(=N)N)C(=O)N[C@H](C(N)=O)C(C)C` [compound 340] (H-DNPSLSIDLPLLLLRTLLELARTQSQRERAEQNARIFARV-NH2; N-terminus assumed) has an Emax [1] of 100% and an Emax [2] of 96%.
For `CC[C@H](C)[C@H](NC(=O)[C@H](CCCNC(=N)N)NC(=O)[C@H](C)NC(=O)[C@H](CC(N)=O)NC(=O)[C@H](CCC(N)=O)NC(=O)[C@H](CCC(=O)O)NC(=O)[C@H](C)NC(=O)[C@H](CCCNC(=N)N)NC(=O)[C@H](CCC(=O)O)NC(=O)[C@H](CCCNC(=N)N)NC(=O)[C@H](CCC(N)=O)NC(=O)[C@H](CO)NC(=O)[C@H](CCC(N)=O)NC(=O)[C@@H](NC(=O)[C@H](CCCCN)NC(=O)[C@H](CCC(=O)O)NC(=O)[C@H](CC(C)C)NC(=O)[C@H](CCC(=O)O)NC(=O)[C@H](CC(C)C)NC(=O)[C@H](CC(C)C)NC(=O)[C@@H](NC(=O)[C@H](CCCNC(=N)N)NC(=O)[C@H](CC(C)C)NC(=O)[C@H](CC(C)C)NC(=O)[C@H](CC(C)C)NC(=O)[C@H](CC(C)C)NC(=O)[C@@H]1CCCN1C(=O)[C@H](CC(C)C)NC(=O)[C@H](CC(=O)O)NC(=O)[C@@H](NC(=O)[C@H](CO)NC(=O)[C@H](CC(C)C)NC(=O)[C@H](CO)NC(=O)[C@@H]1CCCN1C(=O)[C@H](CC(N)=O)NC(=O)[C@@H](N)CC(=O)O)[C@@H](C)CC)[C@@H](C)O)[C@@H](C)O)C(=O)N[C@@H](Cc1ccccc1)C(=O)N[C@@H](C)C(=O)N[C@@H](CCCNC(=N)N)C(=O)N[C@H](C(N)=O)C(C)C` [compound 341] (H-DNPSLSIDLPLLLLRTLLELEKTQSQRERAEQNARIFARV-NH2; N-terminus assumed), the Emax [1] was 95.5% and the Emax [2] was 82.3%.
Work on `CC[C@H](C)[C@H](NC(=O)[C@H](C)NC(=O)[C@H](CC(N)=O)NC(=O)[C@H](CCC(N)=O)NC(=O)[C@H](CCC(=O)O)NC(=O)[C@H](C)NC(=O)[C@H](CCCNC(=N)N)NC(=O)[C@H](CCC(=O)O)NC(=O)[C@H](CCCNC(=N)N)NC(=O)[C@H](CCC(N)=O)NC(=O)[C@H](CO)NC(=O)[C@H](CCC(N)=O)NC(=O)[C@@H](NC(=O)[C@H](CCCCN)NC(=O)[C@H](CCC(=O)O)NC(=O)[C@H](CC(C)C)NC(=O)[C@H](CCC(=O)O)NC(=O)[C@H](CC(C)C)NC(=O)[C@H](CC(C)C)NC(=O)[C@@H](NC(=O)[C@H](CCCNC(=N)N)NC(=O)[C@H](CC(C)C)NC(=O)[C@H](CC(C)C)NC(=O)[C@H](CCC(N)=O)NC(=O)[C@H](CC(C)C)NC(=O)[C@@H]1CCCN1C(=O)[C@H](CC(C)C)NC(=O)[C@H](CC(=O)O)NC(=O)[C@@H](NC(=O)[C@H](CO)NC(=O)[C@H](CC(C)C)NC(=O)[C@H](CO)NC(=O)[C@@H]1CCCN1C(=O)[C@H](CC(N)=O)NC(=O)[C@@H](N)CC(=O)O)[C@@H](C)CC)[C@@H](C)O)[C@@H](C)O)C(=O)N[C@H](C(=O)N[C@@H](Cc1ccccc1)C(=O)N[C@@H](C)C(=O)N[C@@H](CO)C(=O)N[C@H](C(N)=O)C(C)C)[C@@H](C)CC` [compound 342] (H-DNPSLSIDLPLQLLRTLLELEKTQSQRERAEQNAIIFASV-NH2; N-terminus assumed) yielded an Emax [1] of 92.2% and an Emax [2] of 19.6%.
`CC[C@H](C)[C@H](NC(=O)[C@H](C)NC(=O)[C@H](CC(N)=O)NC(=O)[C@H](CCC(N)=O)NC(=O)[C@H](CCC(=O)O)NC(=O)[C@H](C)NC(=O)[C@H](CCCNC(=N)N)NC(=O)[C@H](CCC(=O)O)NC(=O)[C@H](CCCNC(=N)N)NC(=O)[C@H](CCC(N)=O)NC(=O)[C@H](CO)NC(=O)[C@H](CCC(N)=O)NC(=O)[C@@H](NC(=O)[C@H](CCCCN)NC(=O)[C@H](CCC(=O)O)NC(=O)[C@H](CC(C)C)NC(=O)[C@H](CCC(=O)O)NC(=O)[C@H](CC(C)C)NC(=O)[C@H](CC(C)C)NC(=O)[C@@H](NC(=O)[C@H](CCCNC(=N)N)NC(=O)[C@H](CC(C)C)NC(=O)[C@H](CC(C)C)NC(=O)[C@H](Cc1ccccc1)NC(=O)[C@H](CC(C)C)NC(=O)[C@@H]1CCCN1C(=O)[C@H](CC(C)C)NC(=O)[C@H](CC(=O)O)NC(=O)[C@@H](NC(=O)[C@H](CO)NC(=O)[C@H](CC(C)C)NC(=O)[C@H](CO)NC(=O)[C@@H]1CCCN1C(=O)[C@H](CC(N)=O)NC(=O)[C@@H](N)CC(=O)O)[C@@H](C)CC)[C@@H](C)O)[C@@H](C)O)C(=O)N[C@H](C(=O)N[C@@H](Cc1ccccc1)C(=O)N[C@@H](C)C(=O)N[C@@H](CO)C(=O)N[C@H](C(N)=O)C(C)C)[C@@H](C)CC` [compound 343] (H-DNPSLSIDLPLFLLRTLLELEKTQSQRERAEQNAIIFASV-NH2; N-terminus assumed) gave an Emax [1] of 96.5% and an Emax [2] of 62.5%.
`CC[C@H](C)[C@H](NC(=O)[C@H](C)NC(=O)[C@H](CC(N)=O)NC(=O)[C@H](CCC(N)=O)NC(=O)[C@H](CCC(=O)O)NC(=O)[C@H](C)NC(=O)[C@H](CCCNC(=N)N)NC(=O)[C@H](CCC(=O)O)NC(=O)[C@H](CCCNC(=N)N)NC(=O)[C@H](CCC(N)=O)NC(=O)[C@H](CO)NC(=O)[C@H](CCC(N)=O)NC(=O)[C@@H](NC(=O)[C@H](CCCCN)NC(=O)[C@H](CCC(=O)O)NC(=O)[C@H](CC(C)C)NC(=O)[C@H](CCC(=O)O)NC(=O)[C@H](CC(C)C)NC(=O)[C@H](CC(C)C)NC(=O)[C@@H](NC(=O)[C@H](CCCNC(=N)N)NC(=O)[C@H](CC(C)C)NC(=O)[C@H](CC(C)C)NC(=O)[C@H](CC(C)C)NC(=O)[C@H](CC(C)C)NC(=O)[C@@H]1CCCN1C(=O)[C@H](CC(C)C)NC(=O)[C@H](CC(=O)O)NC(=O)[C@@H](NC(=O)[C@H](CO)NC(=O)[C@H](CC(C)C)NC(=O)[C@H](CO)NC(=O)[C@@H]1CCCN1)[C@@H](C)CC)[C@@H](C)O)[C@@H](C)O)C(=O)N[C@H](C(=O)N[C@@H](Cc1ccccc1)C(=O)N[C@@H](C)C(=O)N[C@@H](CO)C(=O)N[C@H](C(N)=O)C(C)C)[C@@H](C)CC` [compound 344] (H-PSLSIDLPLLLLRTLLELEKTQSQRERAEQNAIIFASV-NH2) was tested, and the Emax [1] was 94.5% and the Emax [2] was 77.7%.
`CC[C@H](C)[C@H](NC(=O)[C@H](C)NC(=O)[C@H](CC(N)=O)NC(=O)[C@H](CCC(N)=O)NC(=O)[C@H](CCC(=O)O)NC(=O)[C@H](C)NC(=O)[C@H](CCCNC(=N)N)NC(=O)[C@H](CCC(=O)O)NC(=O)[C@H](CCCNC(=N)N)NC(=O)[C@H](CCC(N)=O)NC(=O)[C@H](CO)NC(=O)[C@H](CCC(N)=O)NC(=O)[C@@H](NC(=O)[C@H](CCCCN)NC(=O)[C@H](CCC(=O)O)NC(=O)[C@H](CC(C)C)NC(=O)[C@H](CCC(=O)O)NC(=O)[C@H](CC(C)C)NC(=O)[C@H](CC(C)C)NC(=O)[C@@H](NC(=O)[C@H](CCCNC(=N)N)NC(=O)[C@H](CC(C)C)NC(=O)[C@H](CC(C)C)NC(=O)[C@@H](NC(=O)[C@H](CC(C)C)NC(=O)[C@@H]1CCCN1C(=O)[C@H](CC(C)C)NC(=O)[C@H](CC(=O)O)NC(=O)[C@@H](NC(=O)[C@H](CO)NC(=O)[C@H](CC(C)C)NC(=O)[C@H](CO)NC(=O)[C@@H]1CCCN1C(=O)[C@H](CC(N)=O)NC(=O)[C@@H](N)CC(=O)O)[C@@H](C)CC)[C@@H](C)CC)[C@@H](C)O)[C@@H](C)O)C(=O)N[C@H](C(=O)N[C@@H](Cc1ccccc1)C(=O)N[C@@H](C)C(=O)N[C@@H](CO)C(=O)N[C@H](C(N)=O)C(C)C)[C@@H](C)CC` [compound 345] (H-DNPSLSIDLPLILLRTLLELEKTQSQRERAEQNAIIFASV-NH2; N-terminus assumed) showed an EC50 ([1]; read-out: CRF2R EC50) of 39.7 nM, an Emax [1] of 100% and an EC50 ([2]; read-out: CRF1R EC50) of no less than 1000 nM. It also gave an Emax [2] of 18.8%.

— US6936585B2, “Corticotropin releasing factor 2 receptor agonists” (priority 2002, dated 2005)
